Assay results reported in the supplement of paper PMC10307832.

Key:
Experiment in all cases: relative viability (nuclei count vs DMSO), 5 days (fraction); higher = more cells survive
[1] = compound: C1COCCN1C2=NC(=NC3=C2OC4=C3C=CC=N4)C5=CC(=CC=C5)NC(=O)C6=CN=C(C=C6)N + CS(=O)(=O)N1CCN(Cc2cc3nc(-c4cccc5[nH]ncc45)nc(N4CCOCC4)c3s2)CC1 [Pictilisib] (partner 1 µM)
Method in brief: (§1)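 Cells from lung cancer lines were seeded into 1536-well plates and, one day later, dosed by pin tool. Treatments were either a single drug or a fixed dose of an anchor drug with five library-drug doses (not always all listed) in √10 steps. After 5 days, nuclei were stained in a one-step fixation (final 0.05% Triton X-100, 1% formaldehyde, 1 ug/ml Hoechst) and counted on 4× images, and relative viability is the treated-to-vehicle nuclei ratio, as the median of duplicate plates.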

[2] = compound: Nc1ccccc1NC(=O)c1ccc(CNC(=O)OCc2cccnc2)cc1 [Entinostat] + N=C(N)NC(=N)NCCc1ccccc1 [Phenformin] (partner 250 µM)
Method in brief: as §1

[3] = compound: C1COCCN1C2=NC(=NC3=C2OC4=C3C=CC=N4)C5=CC(=CC=C5)NC(=O)C6=CN=C(C=C6)N + CC(=O)Nc1cccc(-n2c(=O)n(C3CC3)c(=O)c3c(Nc4ccc(I)cc4F)n(C)c(=O)c(C)c32)c1 [Trametinib] (partner 0.02 µM)
Method in brief: as §1

[4] = compound: CN1CCC(CNc2ccc3ncc(-c4cccc(OC(F)(F)F)c4)n3n2)CC1 [SGI-1776] + Cc1nc(NC(=O)N2CCC[C@H]2C(N)=O)sc1-c1ccnc(C(C)(C)C(F)(F)F)c1 [Alpelisib] (partner 2 µM)
Method in brief: as §1

| Cell Line | relative viability ([1]; first compound 0.02 µM) | relative viability ([1]; first compound 0.06325 µM) | relative viability ([1]; first compound 0.2 µM) | relative viability ([1]; first compound 0.6325 µM) | relative viability ([1]; first compound 2 µM) | relative viability ([2]; first compound 0.02 µM) | relative viability ([2]; first compound 0.06325 µM) | relative viability ([2]; first compound 0.2 µM) | relative viability ([2]; first compound 0.6325 µM) | relative viability ([2]; first compound 2 µM) | relative viability ([3]; first compound 0.02 µM) | relative viability ([3]; first compound 0.06325 µM) | relative viability ([3]; first compound 0.2 µM) | relative viability ([3]; first compound 0.6325 µM) | relative viability ([3]; first compound 2 µM) | relative viability ([4]; first compound 0.08 µM) | relative viability ([4]; first compound 0.8 µM) | relative viability ([4]; first compound 2.53 µM) | relative viability ([4]; first compound 8 µM) |
| --- | --- | --- | --- | --- | --- | --- | --- | --- | --- | --- | --- | --- | --- | --- | --- | --- | --- | --- | --- |
| 201T | 0.661 | 0.66 | 0.654 | 0.735 | 0.696 | 0.46 | 0.414 | 0.451 | 0.382 | 0.303 | 0.697 | 0.713 | 0.705 | 0.686 | 0.563 | 1.02 | 1.03 | 1.08 | 0.999 |
| A549 | 0.628 | 0.577 | 0.397 | 0.391 | 0.24 | 0.166 | 0.207 | 0.197 | 0.169 | 0.101 | – | – | – | – | – | 0.787 | 0.701 | 0.852 | 0.394 |
| A-427 | 0.696 | 0.621 | 0.675 | 0.653 | 0.507 | 0.365 | 0.327 | 0.368 | 0.318 | 0.266 | 0.718 | 0.732 | 0.682 | 0.684 | 0.563 | 1.16 | 1.14 | 1.12 | 1.02 |
| ABC-1 | 0.711 | 0.717 | 0.773 | 0.768 | 0.609 | 0.215 | 0.267 | 0.263 | 0.268 | 0.215 | – | – | – | – | – | 1.12 | 0.977 | 1.06 | 0.948 |
| BEN | 0.587 | 0.556 | 0.597 | 0.501 | 0.589 | 0.247 | 0.267 | 0.258 | 0.238 | 0.254 | 1 | 0.947 | 1.11 | 0.888 | 0.939 | 0.957 | 1.01 | 0.896 | 0.699 |
| CAL-12T | 0.464 | 0.479 | 0.391 | 0.356 | 0.455 | 0.649 | 0.581 | 0.593 | 0.523 | 0.325 | 0.28 | 0.324 | 0.272 | 0.354 | 0.303 | 1.23 | 1.37 | 1.66 | 1.08 |
| COR-L23 | 1.02 | 1.21 | 0.845 | 0.843 | 0.574 | 0.433 | 0.429 | 0.389 | 0.245 | 0.144 | 0.609 | 0.669 | 0.663 | 0.593 | 0.469 | 0.935 | 0.697 | 0.743 | 0.521 |
| COR-L 105 | 0.433 | 0.351 | 0.389 | 0.344 | 0.33 | 0.499 | 0.561 | 0.45 | 0.411 | 0.23 | 0.421 | 0.411 | 0.415 | 0.403 | 0.465 | 1.13 | 1.05 | 1.03 | 0.759 |
| Calu-6 | 1.03 | 0.932 | 0.87 | 0.888 | 0.472 | – | – | – | – | – | – | – | – | – | – | 1.01 | 0.955 | 1.23 | 0.628 |
| ChaGo-K-1 | 0.789 | 0.61 | 0.547 | 0.633 | 0.624 | 0.607 | 0.471 | 0.567 | 0.456 | 0.462 | 0.906 | 0.987 | 0.941 | 0.804 | 0.602 | – | – | – | – |
| EBC-1 | 0.409 | 0.432 | 0.307 | 0.295 | 0.293 | – | – | – | – | – | – | – | – | – | – | 0.888 | 0.78 | 0.903 | 0.434 |
| EKVX | 0.408 | 0.408 | 0.44 | 0.379 | 0.439 | 0.225 | 0.243 | 0.227 | 0.222 | 0.205 | 0.322 | 0.334 | 0.298 | 0.248 | 0.244 | 0.885 | 0.933 | 0.869 | 0.72 |
| EMC-BAC-2 | 0.495 | 0.526 | 0.516 | 0.523 | 0.465 | 0.523 | 0.533 | 0.449 | 0.416 | 0.293 | 0.838 | 0.924 | 0.853 | 0.789 | 0.725 | 0.741 | 0.703 | 0.802 | 0.723 |
| EPLC-272H | 0.292 | 0.297 | 0.264 | 0.308 | 0.288 | 0.297 | 0.303 | 0.276 | 0.175 | 0.217 | 0.278 | – | 0.235 | 0.297 | 0.281 | 0.943 | 0.952 | 1.16 | 0.804 |
| H3255 | 0.417 | 0.495 | 0.458 | 0.505 | 0.432 | 0.378 | 0.376 | 0.272 | 0.316 | 0.267 | 0.703 | 0.588 | 0.604 | 0.663 | 0.421 | 0.65 | 0.747 | 0.611 | 0.38 |
| HARA | 0.273 | 0.319 | 0.329 | 0.326 | 0.291 | 0.459 | 0.441 | 0.494 | 0.364 | 0.277 | 0.728 | 0.738 | 0.848 | 0.433 | 0.601 | 1.01 | 0.935 | 0.803 | 0.678 |
| HCC-15 | 0.735 | 0.76 | 0.713 | 0.742 | 0.527 | 0.491 | 0.461 | 0.453 | 0.246 | 0.175 | 0.413 | 0.423 | 0.343 | 0.325 | 0.278 | 0.912 | 0.836 | 0.895 | 0.71 |
| HCC-44 | 0.508 | 0.607 | 0.65 | 0.506 | 0.399 | 0.204 | 0.197 | 0.129 | 0.11 | 0.0548 | 1.12 | 1.31 | 1.04 | 1.09 | 1 | 0.88 | 0.876 | 0.733 | 0.571 |
